# Data: US20220402925A1, “COMPOUNDS AND METHODS FOR THE TREATMENT OF CYSTIC FIBROSIS” (Flatley Discovery Lab, LLC, priority 2019, published 2022)
# Biological target: T1, F508del CFTR (Homo sapiens, UniProt P13569, DEL508-508)
# T1 construct: Primary CF airway epithelial cells were obtained from the UNC Cystic Fibrosis Tissue Procurement and Cell Culture Core; host or cells: primary CF airway epithelial cells
# Test: Equivalent current assay in primary CF airway epithelial cells (Corrector Activity, NAUC normalized to 3 μM VX809)
# Format: cell-based
# Settings: NAUC as % of positive control (VX-809)
# Method: Primary CF airway epithelial cells were obtained from the UNC Cystic Fibrosis Tissue Procurement and Cell Culture Core. The cells are grown at 37° C. in a Heracell 150i incubator using growth media (BEGM, Fischer). Cells were then transferred to differentiation media (airway liquid interface media (ALI) media; Lechner J F and LaVeck M A, J. Tissue Culture Methods 1985, 9: 43-48) for a minimum of 4 weeks on coated Costar transwells. Two days before the assay the mucus on the apical surface of the cells was aspirated after incubating with 200 μL of differentiation media for at least thirty (30) minutes. One day before the assay test compounds were added to the basolateral surface of the cells at various test concentrations dissolved in DMSO. Duplicate wells were prepared giving a n=4 or n=6 protocol.
# Cells were treated for 24 hours with various combinations and concentrations of the test articles, reference standard (3 μM VX809, positive control). Compounds stock solutions were prepared in DMSO and diluted 1/1000 into ALI media to their final assay concentration. Cells were treated with combination solutions (2 mL of each dilution) and incubated at 37° C. for 24 h.
# For the equivalent current assay, cells on six Transwell (24-well) plates were treated. Each Transwell plate was filled with 200 μl of HBS on the apical surface and 2 ml on the basolateral surface. Plates were placed horizontally in a heated mount at 37° C. and equilibrated for 30 minutes. Resting current was measured for 15 min and then blocked by the apical addition of 5 μM benzamil. After 20 min, CFTR activator (10 μM forskolin) and potentiator (either 1 μM VX-770 or 3 μM FDL176) were added to both the apical and basolateral side to stimulate CFTR. An increase in chloride current is seen as an upward deflection of the trace. After another 60 min, CFTR-172 (a CFTR inhibitor, 20 μM) and/or bumetanide (20 uM) was added to block CFTR mediated chloride current.
# The raw data, voltage vs. time and resistance vs. time for the equivalent current assay (sampling interval: 6 minutes) were transferred to Excel (Microsoft Office Professional, version 14.0.7106.5003) for analysis. CFTR specific current was computed from I=V/R (Ohms Law), the average amplitude of the increase in current elicited upon addition forskolin and ending upon addition of the CFTR channel specific blocker CFTR-172. This average is equivalent to the sum of the average forskolin activated and the average VX770-potentiated currents. The average current measured in vehicle (0.1% DMSO) treated cells, IV, was subtracted from the current for the test article, ITA, or from the corrector reference standard VX809 (3 uM, ISTD). For replicate measurements, the averaged vehicle subtracted response for the test article, was normalized to the averaged vehicle subtracted response of the reference corrector VX809 (3 μM).
# INSC=(ITA−IV)(ave)/(ISTD−IV)(ave) (Equation 1)
# A second endpoint, for the equivalent current assay, evaluated was NAUC, the normalized area under the curve (AUC) measuring the response after addition of forskolin and potentiator to the time point right before the addition of the CFTR inhibitor. The AUC is effectively the average response multiplied by the duration of the response. The AUC of the test article, AUCTA was then corrected by subtracting the average vehicle response, AUCV,ave over the same time range, and normalized as for the inhibitor-sensitive current to the difference of the corrector reference standard VX809 (3 μM VX809r,ave and the vehicle response:
# NAUCTA=[AUCTA−AUCV,ave]/[AUCVx809r,ave−AUCV,ave] (Equation 2).
# The normalized value for DMSO is 0.0 and for VX-809 alone is 1.0 for both of these equations.
# Experiments were run with a minimum of n=4 replicates per concentration. Since the distribution for the ratio of two normal distributions is a Cauchy distribution, the median value must be used for the average and the average deviation must be used for the error of all normalized data. […]
# T1 sequence (P13569 with tags, fused parts or gaps DEL508-508): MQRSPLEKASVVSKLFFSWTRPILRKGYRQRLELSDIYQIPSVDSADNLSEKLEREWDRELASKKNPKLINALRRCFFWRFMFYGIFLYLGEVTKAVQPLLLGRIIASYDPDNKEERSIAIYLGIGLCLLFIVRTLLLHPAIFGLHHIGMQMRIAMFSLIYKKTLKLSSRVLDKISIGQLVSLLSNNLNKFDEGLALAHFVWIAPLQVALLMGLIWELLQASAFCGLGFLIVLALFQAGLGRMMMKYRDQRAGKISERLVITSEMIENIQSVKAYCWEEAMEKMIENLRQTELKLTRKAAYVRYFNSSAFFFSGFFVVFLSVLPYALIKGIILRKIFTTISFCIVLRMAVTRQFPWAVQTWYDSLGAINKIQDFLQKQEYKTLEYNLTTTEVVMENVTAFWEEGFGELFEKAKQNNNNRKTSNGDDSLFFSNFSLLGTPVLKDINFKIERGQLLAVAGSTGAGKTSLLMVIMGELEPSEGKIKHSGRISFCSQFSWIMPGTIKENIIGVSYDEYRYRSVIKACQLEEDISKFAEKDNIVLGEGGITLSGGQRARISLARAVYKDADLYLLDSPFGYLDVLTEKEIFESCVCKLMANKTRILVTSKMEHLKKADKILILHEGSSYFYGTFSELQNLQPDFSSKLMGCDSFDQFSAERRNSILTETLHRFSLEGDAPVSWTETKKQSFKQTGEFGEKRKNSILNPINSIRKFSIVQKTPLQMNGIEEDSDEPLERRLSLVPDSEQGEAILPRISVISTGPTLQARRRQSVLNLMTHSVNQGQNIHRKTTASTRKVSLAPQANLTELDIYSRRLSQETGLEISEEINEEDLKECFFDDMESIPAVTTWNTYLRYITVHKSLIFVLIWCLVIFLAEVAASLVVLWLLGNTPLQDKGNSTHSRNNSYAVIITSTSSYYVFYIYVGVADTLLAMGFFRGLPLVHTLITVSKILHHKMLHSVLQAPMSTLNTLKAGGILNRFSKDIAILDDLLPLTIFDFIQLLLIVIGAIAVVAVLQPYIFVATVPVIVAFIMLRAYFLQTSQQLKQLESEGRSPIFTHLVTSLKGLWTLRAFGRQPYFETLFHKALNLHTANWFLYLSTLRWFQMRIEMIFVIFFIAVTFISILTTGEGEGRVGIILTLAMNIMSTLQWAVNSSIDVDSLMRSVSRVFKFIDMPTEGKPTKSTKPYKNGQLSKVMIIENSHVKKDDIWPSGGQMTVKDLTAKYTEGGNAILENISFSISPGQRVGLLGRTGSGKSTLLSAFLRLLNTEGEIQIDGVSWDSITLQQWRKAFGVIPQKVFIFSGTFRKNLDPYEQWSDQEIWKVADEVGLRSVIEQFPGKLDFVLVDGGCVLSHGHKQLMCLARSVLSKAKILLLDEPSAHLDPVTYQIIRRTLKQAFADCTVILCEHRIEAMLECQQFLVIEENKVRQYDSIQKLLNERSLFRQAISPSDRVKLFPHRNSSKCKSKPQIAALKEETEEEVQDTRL
row,Corr Activity (NAUC),SMILES
1,++ (NAUC 70-40% of positive control),CN(C(=O)Cn1nc(-c2cccc(C#N)c2)c2oc(C3CC3)cc2c1=O)c1ccc2c(c1)OC(F)(F)O2 [Example 220]
2,+++ (NAUC>70% of positive control),CCN(C(=O)Cn1nc(-c2cc(F)cc(F)c2)c2oc(C3CC3)cc2c1=O)c1ccc2c(c1)OC(F)(F)O2 [Example 222]
3,+++ (NAUC>70% of positive control),Cc1nc2ccc(N(C)C(=O)Cn3nc(-c4cccc(Cl)c4)c4sc(C)nc4c3=O)cc2o1 [Example 20]
4,+++ (NAUC>70% of positive control),N#Cc1cc(F)cc(-c2nn(CC(=O)N(c3ccc4c(c3)OC(F)(F)O4)C3CC3)c(=O)c3nc[nH]c23)c1 [Example 368]
5,+++ (NAUC>70% of positive control),"CCN(C(=O)Cn1nc(-c2cccc(F)c2)c2[nH]ccc2c1=O)c1ccc2c(c1)OC(F)(F)O2 [Example 501, N-(2,2-difluorobenzo[d][1,3]dioxol-5-yl)-N-ethyl-2-(7-(3-fluorophenyl)-4-oxo-1,4-dihydro-5H-pyrrolo[2,3-d]pyridazin-5-yl)acetamide]"
6,++ (NAUC 70-40% of positive control),CCN(C(=O)Cn1nc(-c2cc(F)cc(C#N)c2)c2oc(C(=O)NC(C)(C)C)cc2c1=O)c1ccc2c(c1C)OC(F)(F)O2 [Example 140]
7,+++ (NAUC>70% of positive control),CCN(C(=O)Cn1nc(-c2ccc(N3CCCC3)c(C#N)c2)c2[nH]cnc2c1=O)c1ccc2c(c1)OC(F)(F)O2 [Example 352]
8,+++ (NAUC>70% of positive control),CN(C(=O)Cn1nc(-c2cccc(C#N)c2)c2[nH]cnc2c1=O)c1ccc2c(c1F)OC(F)(F)O2 [Example 251]
9,+++ (NAUC>70% of positive control),N#Cc1cc(-c2nn(CC(=O)N(c3ccc4c(c3)OC(F)(F)O4)C3CC3)c(=O)c3nc[nH]c23)ccc1N1CCC(F)(F)C1 [Example 489]
10,++ (NAUC 70-40% of positive control),CCN(C(=O)Cn1nc(-c2cccc(Cl)c2)c2[nH]ncc2c1=O)c1ccc2c(c1)OC(F)(F)O2 [Example 500]
11,+++ (NAUC>70% of positive control),CCN(C(=O)Cn1nc(-c2cccc(Cl)c2)c2oc(C3CC3)cc2c1=O)c1ccc2c(c1)OC(F)(F)O2 [Example 230]
12,+++ (NAUC>70% of positive control),CC(C)Oc1ccc(-c2nn(CC(=O)N(c3ccc4c(c3)OC(F)(F)O4)C3CC3)c(=O)c3nc[nH]c23)cc1Cl [Example 446]
13,+ (NAUC<40% of positive control),CN1C(=O)Cc2ccc(-c3nn(CC(=O)N(c4ccc5c(c4)OC(F)(F)O5)C4CC4)c(=O)c4nc[nH]c34)cc21 [Example 432]
14,+++ (NAUC>70% of positive control),CCN(C(=O)Cn1nc(-c2ccc(OC)c(C#N)c2)c2[nH]cnc2c1=O)c1ccc2c(c1)OC(F)(F)O2 [Example 346]
15,+++ (NAUC>70% of positive control),CN(C(=O)Cn1nc(-c2cccc(C(C)(C)C)c2)c2oc(C(=O)NC(C)(C)C)cc2c1=O)c1ccc2c(c1)OC(F)(F)O2 [Example 126]
16,+ (NAUC<40% of positive control),"CN(C(=O)Cn1nc(-c2cccc(Cl)c2)c2oc(C(=O)N3CCCC3)cc2c1=O)c1ccc2c(c1)OC(F)(F)O2 [Example 65, 2-(7-(3-chlorophenyl)-4-oxo-2-(pyrrolidine-1-carbonyl)furo[2,3-d]pyridazin-5(4H)-yl)-N-(2,2-difluorobenzo[d][1,3]dioxol-5-yl)-N-methylacetamide]"
17,++ (NAUC 70-40% of positive control),CN(C(=O)Cn1nc(-c2cc(C#N)cc(C(F)(F)F)c2)c2oc(C(=O)NC(C)(C)C)cc2c1=O)c1ccc2c(c1)OC(F)(F)O2 [Example 143]
18,+ (NAUC<40% of positive control),CCN(C(=O)Cn1nc(-c2cc(Cl)cc(C(=O)N(C)C)c2)c2[nH]cnc2c1=O)c1ccc2c(c1)OC(F)(F)O2 [Example 267]
19,+++ (NAUC>70% of positive control),CCN(C(=O)Cn1nc(-c2cc(Cl)cc(OC)c2)c2oc(C3CC3)cc2c1=O)c1ccc2c(c1)OC(F)(F)O2 [Example 227]
